Source: the NIST ThermoML archive (doi:10.1021/je030177j)

Conditions: Liquid, Capillary tube (Ostwald / Ubbelohde) method

O [water]
viscosity [mPa·s]
Conditions | 297.88 K | 319.09 K | 340.98 K | 370.39 K | 408.77 K | 447.38 K | 483.66 K | 538.57 K | 574.32 K
10000 kPa | 0.893 | 0.5912 | 0.4195 | 0.2947 | 0.206 | 0.1576 | 0.129 | 0.1005 | 0.0866
20000 kPa | 0.8933 | 0.589 | 0.4232 | 0.2976 | 0.2107 | 0.161 | 0.1314 | 0.1027 | 0.0903
30000 kPa | 0.8935 | 0.5978 | 0.4275 | 0.3012 | 0.2132 | 0.1637 | 0.134 | 0.1058 | 0.0932
